The molecules below were run against T1, human LCE (Homo sapiens, UniProt Q9H5J4) (assay: LCE enzyme activity-inhibitory test). Conditions: palmitoyl CoA and [14C]-malonyl CoA substrates, pH 6.5, 37° C., 90 minutes.
T1 sequence (Q9H5J4 1-265): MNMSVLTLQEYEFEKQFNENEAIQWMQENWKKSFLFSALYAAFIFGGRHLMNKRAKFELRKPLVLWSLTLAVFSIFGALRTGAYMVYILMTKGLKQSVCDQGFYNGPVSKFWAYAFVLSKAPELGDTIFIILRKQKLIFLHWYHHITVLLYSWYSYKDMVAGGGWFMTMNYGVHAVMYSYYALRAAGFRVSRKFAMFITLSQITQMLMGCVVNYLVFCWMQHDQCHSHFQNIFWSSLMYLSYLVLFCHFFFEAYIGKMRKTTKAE
Assay type: biochemical
Protocol: A test compound was dissolved in dimethyl sulfoxide (DMSO to be 10 mM), and then diluted with DMSO to prepare a 1000-fold concentrated solution of the test concentration. An improved Moon et al's method (J. Biol. Chem., Vol. 276, pp. 45358-45366, 2001) was employed for the LCE enzyme activity-inhibitor test. Concretely, the diluted compound was applied to a 96-well assay plate (Corning, 96-well assay block) in an amount of 1.0 μL/well; 50 μL of a phosphate buffer solution (100 mM potassium phosphate buffer, pH 6.5), and 25 μL of a substrate solution (100 mM potassium phosphate buffer (pH 6.5), 4.0 μM rotenone, 80 μM fatty acid-free bovine serum albumin, 160 μM palmitoyl CoA, 80 μM malonyl CoA, 3.5 μM [^14C]-malonyl CoA (1.92 GBq/mmol, by Amersham)) were added to each well; 25 μL of an enzyme solution (100 mM potassium phosphate buffer (pH 6.5), 100 μg/mL human LCE) was added thereto; the top of the plate was airtightly sealed up; and this was incubated with gently shaking and stirring at 37° C. for 90 minutes. Next, 100 μL of 5 N hydrochloric acid was added to each well, and the assay plate was stirred at room temperature for 5 minutes to stop the enzyme reaction with hydrolyzing the acyl CoA. Next, the enzyme reaction solution in each well was adsorbed by each well of a 96-well GF/C filter plate (Perkin Elmer Unifilter 96 GF/C); the individual wells were washed with water to remove the non-adsorbed malonyl CoA; and the GF/C filter plate was dried at 50° C. for 60 minutes. Next, 30 μL of a scintillator (Perkin Elmer Microscinti 0) was added to each well; then the top of the plate was sealed up; and the fixed [^14C] radioactivity was measured with a microplate scintillation counter (Perkin Elmer TopCount) to be the enzyme activity. The human LCE enzyme-inhibitory activity of the test compound was calculated, based on the radioactivity of the DMSO-added well with no test compound therein as a control.

`CC(C)Oc1ccc(NC(=O)[C@@H]2CCC[C@@H](S(=O)(=O)c3ccccn3)C2)nc1` (racemic) [Example 8, (1R*,3R*)-N-(5-isopropoxypyridin-2-yl)-3-(pyridin-2-ylsulfonyl)cyclohexanecarboxamide] and `CC(C)Oc1ccc(NC(=O)[C@@H]2CCC[C@@H](S(=O)(=O)c3ccccc3)C2)nc1` (racemic) [Example 7, (1R*,3R*)-N-(5-isopropoxypyridin-2-yl)-3-(phenylsulfonyl)cyclohexanecarboxamide] are within 1.5-fold of each other in IC50: 43 nM for the first, 30 nM for the second.

First: CC(C)Oc1ccc(NC(=O)[C@@H]2CCC[C@@H](S(=O)(=O)c3cnccn3)C2)nc1 (racemic) [Example 13, (1R*,3R*)-N-(5-isopropoxypyridin-2-yl)-3-(pyrazin-2-ylsulfonyl)cyclohexanecarboxamide]
Second: CC(C)Oc1ccc(NC(=O)[C@@H]2CCC[C@@H](S(=O)(=O)c3ncccn3)C2)nc1 (racemic) [Example 10, (1R*,3R*)-N-(5-isopropoxypyridin-2-yl)-3-(pyrimidin-2-ylsulfonyl)cyclohexanecarboxamide]
The IC50 of the first is 5-fold higher: 130 nM for the first, 26 nM for the second.

Compared with `CC(C)Oc1ccc(NC(=O)[C@@H]2CCC[C@@H](S(=O)(=O)c3ccccn3)C2)cc1` (racemic) [Example 2, (1R*,3R*)-N-(4-isopropoxyphenyl)-3-(pyridin-2-ylsulfonyl)cyclohexanecarboxamide], `CC(C)Oc1ccc(NC(=O)[C@@H]2CCC[C@@H](S(=O)(=O)c3ccncc3)C2)nc1` (racemic) [Example 9, (1R*,3R*)-N-(5-isopropoxypyridin-2-yl)-3-(pyridin-4-ylsulfonyl)cyclohexanecarboxamide] is 1.8-fold lower in IC50: 233 nM for the first, 131 nM for the second. The second is the more potent here.

Work on `CC(C)Oc1ccc(NC(=O)[C@@H]2CCC[C@@H](S(=O)(=O)c3nccs3)C2)nc1` (racemic) [Example 11, (1R*,3R*)-N-(5-isopropoxypyridin-2-yl)-3-(1,3-thiazol-2-ylsulfonyl)cyclohexanecarboxamide] yielded an IC50 of 32 nM.
